In patent US11814372B2, “Agonists of EPHA and their uses” (CASE WESTERN RESERVE UNIVERSITY, priority 2017, dated 2023):
pKd: −log10 of the molar value.

Columns and labels:
EphA2 [1] = target: T1, EphA2 (Homo sapiens, UniProt P29317); assay: EphA2 activation in HEK 293-A2 cells (pEphA/B immunoblot); type: cell-based; parameters: expressed in transfected cells; host or cells: HEK 293 (HEK 293-A2)
Protocol: (§1) Cells were plated in 24-well dishes at a density of 100,000 cells/well and grown for 24 hours prior to stimulation with appropriate compounds and ephrins for the given amounts of time. Compounds were prepared in DMSO at 500 times the final concentrations and 0.2% DMSO was used as vehicle control. Following treatment, cells were lysed directly in SDS Gel Loading Buffer and immunoblotted as described previously. Immunoprecipitation and immunofluorescence staining was performed as described. For immunoprecipitation, 300,000 cells/well were plated in 6-well dishes and lysed in modified RIPA Buffer (20 mM Tris-HCl pH 7.4, 20 mM NaF, 150 mM NaCl, 10% glycerol, 0.1% SDS, 0.5% DCA, 2 mM EDTA, 1% Triton X-100) following treatment. Either […] of ephrin-A1-Fc, or […] of EphA2 mouse monoclonal antibody (Clone D7, Millipore) were used, and mouse IgG was used as a negative control for EphA2 IP.
(§2) To determine whether the EphA2 agonist activity of doxazosin is cell-context specific, we evaluated the effects of doxazosin on additional cell types. We first utilized HEK 293 cells overexpressing EphA2 (HEK 293-A2) that we described previously. […] Next we tested PC-3 cells that express high levels of endogenous EphA2 receptor. […] We next evaluated the time-course of activation in both MDA-231-A2 and HEK 293-A2 cells upon treatment with a single 50 μM dose of doxazosin.

EphA4 LBD = target: T2, EphA4 LBD (Homo sapiens, UniProt P54764); assay: Isothermal titration calorimetry (ITC) binding; conditions: read-out: dissociation constant (KD)
T2 construct: made in house
T2 sequence (P54764 29-209, species assumed): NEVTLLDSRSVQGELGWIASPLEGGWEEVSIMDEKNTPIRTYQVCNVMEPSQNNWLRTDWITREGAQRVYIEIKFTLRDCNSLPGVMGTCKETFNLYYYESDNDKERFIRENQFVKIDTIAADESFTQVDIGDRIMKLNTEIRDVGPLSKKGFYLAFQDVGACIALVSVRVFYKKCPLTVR
Protocol: Production of the 181-residue EphA4 ligand binding domain (LBD, residues 29-209) and isothermal titration calorimetry (ITC) experiments were performed as previously described. […] By superimposing HSQC spectra, the shifted HSQC peaks could be identified and further assigned to the corresponding residues of the EphA4 ectodomain. The degree of perturbation was measured by an integrated chemical shift index (CSI) calculated by the formula [(ΔH)^2+(ΔN)^2/5]^1/2.

EphB4 = target: T3, EphB4 (Homo sapiens, UniProt P54760); assay: Activation of endogenous EphB4 in HEK 293 vector control cells; type: cell-based
T3 construct: host or cells: HEK 293 vector control cells
T3 sequence (P54760 16-987): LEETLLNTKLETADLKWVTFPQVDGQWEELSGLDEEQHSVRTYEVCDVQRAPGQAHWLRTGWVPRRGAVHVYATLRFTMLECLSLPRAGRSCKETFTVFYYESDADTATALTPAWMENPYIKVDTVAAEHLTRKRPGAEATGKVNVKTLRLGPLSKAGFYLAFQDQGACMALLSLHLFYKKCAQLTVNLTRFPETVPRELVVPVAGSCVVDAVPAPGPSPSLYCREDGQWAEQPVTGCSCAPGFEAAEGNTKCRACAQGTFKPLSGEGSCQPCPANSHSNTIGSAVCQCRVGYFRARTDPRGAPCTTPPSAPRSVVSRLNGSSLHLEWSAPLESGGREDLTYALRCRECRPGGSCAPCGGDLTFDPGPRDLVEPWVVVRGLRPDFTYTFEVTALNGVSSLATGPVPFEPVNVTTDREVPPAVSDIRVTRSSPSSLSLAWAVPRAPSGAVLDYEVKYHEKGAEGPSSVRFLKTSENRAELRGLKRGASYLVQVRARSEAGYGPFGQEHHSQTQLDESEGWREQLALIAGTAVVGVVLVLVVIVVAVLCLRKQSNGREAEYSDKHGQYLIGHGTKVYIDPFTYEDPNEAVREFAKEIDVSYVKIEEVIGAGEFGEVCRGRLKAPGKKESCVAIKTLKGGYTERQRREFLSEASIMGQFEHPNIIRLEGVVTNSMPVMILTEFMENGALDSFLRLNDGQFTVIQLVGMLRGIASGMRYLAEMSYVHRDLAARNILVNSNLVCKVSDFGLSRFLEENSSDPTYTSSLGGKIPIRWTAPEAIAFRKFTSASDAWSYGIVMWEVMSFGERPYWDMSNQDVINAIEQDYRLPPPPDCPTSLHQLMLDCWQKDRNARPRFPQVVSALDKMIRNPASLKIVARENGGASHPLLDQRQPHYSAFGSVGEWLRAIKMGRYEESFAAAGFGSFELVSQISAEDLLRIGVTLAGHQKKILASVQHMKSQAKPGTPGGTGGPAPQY

EphA4 = target: T4, EphA4 (Homo sapiens, UniProt P54764); assay: Eph receptor activation in HEK 293 cells overexpressing EphA4; type: cell-based; conditions: HEK 293 cells overexpressing EphA4, 60 minutes
T4 construct: expressed in transfected cells; host or cells: HEK 293
T4 sequence (P54764 20-986, species assumed): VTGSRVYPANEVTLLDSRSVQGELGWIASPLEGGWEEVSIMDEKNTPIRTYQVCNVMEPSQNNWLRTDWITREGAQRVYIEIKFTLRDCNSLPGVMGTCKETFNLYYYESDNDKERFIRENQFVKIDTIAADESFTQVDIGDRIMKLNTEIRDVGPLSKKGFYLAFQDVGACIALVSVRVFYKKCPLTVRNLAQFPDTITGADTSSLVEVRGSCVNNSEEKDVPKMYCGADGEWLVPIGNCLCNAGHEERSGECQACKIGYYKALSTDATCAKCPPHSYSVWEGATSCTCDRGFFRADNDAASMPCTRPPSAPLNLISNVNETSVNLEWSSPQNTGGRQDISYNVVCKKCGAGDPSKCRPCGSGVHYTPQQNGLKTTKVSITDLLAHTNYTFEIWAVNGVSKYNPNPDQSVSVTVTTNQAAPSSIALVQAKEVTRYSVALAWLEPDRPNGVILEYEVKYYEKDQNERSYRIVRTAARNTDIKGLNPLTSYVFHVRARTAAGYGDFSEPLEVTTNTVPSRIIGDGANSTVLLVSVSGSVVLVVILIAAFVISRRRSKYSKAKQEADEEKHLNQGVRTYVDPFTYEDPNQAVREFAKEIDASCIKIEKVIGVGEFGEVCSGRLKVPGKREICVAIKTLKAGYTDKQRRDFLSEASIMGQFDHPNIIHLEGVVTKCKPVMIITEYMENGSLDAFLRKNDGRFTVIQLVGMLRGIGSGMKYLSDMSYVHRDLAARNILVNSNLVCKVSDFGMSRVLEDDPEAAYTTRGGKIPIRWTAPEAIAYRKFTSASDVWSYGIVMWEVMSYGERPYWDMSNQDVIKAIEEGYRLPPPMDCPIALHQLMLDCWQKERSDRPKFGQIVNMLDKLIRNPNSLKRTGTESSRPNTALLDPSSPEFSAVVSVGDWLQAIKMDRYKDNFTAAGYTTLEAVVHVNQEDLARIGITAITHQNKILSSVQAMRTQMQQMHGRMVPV
Protocol: Cells were plated in 24-well dishes at a density of 100,000 cells/well and grown for 24 hours prior to stimulation with appropriate compounds and ephrins for the given amounts of time. Compounds were prepared in DMSO at 500 times the final concentrations and 0.2% DMSO was used as vehicle control. Following treatment, cells were lysed directly in SDS Gel Loading Buffer and immunoblotted as described previously. […] For this purpose, HEK 293 cell lines overexpressing EphA1, EphA2, EphA3, EphA4, and EphB3 kinases were utilized.

EphA2 [2] = target: T1, EphA2; assay: Activation of endogenous EphA2 in PC-3 cells (pEphA/B immunoblot); type: cell-based; parameters: host or cells: PC-3; conditions: endogenous EphA2, 30 minutes
Protocol: as §1, §2

ERK1/2 and Akt = assay: Inhibition of ERK1/2 and Akt activation in A172-A2 glioma cells (immunoblot); type: cell-based; conditions: 50 μM and 100 μM, 90 minutes
Protocol: Cells were plated in 24-well dishes at a density of 100,000 cells/well and grown for 24 hours prior to stimulation with appropriate compounds and ephrins for the given amounts of time. Compounds were prepared in DMSO at 500 times the final concentrations and 0.2% DMSO was used as vehicle control. Following treatment, cells were lysed directly in SDS Gel Loading Buffer and immunoblotted as described previously. […] For immunoprecipitation, 300,000 cells/well were plated in 6-well dishes and lysed in modified RIPA Buffer (20 mM Tris-HCl pH 7.4, 20 mM NaF, 150 mM NaCl, 10% glycerol, 0.1% SDS, 0.5% DCA, 2 mM EDTA, 1% Triton X-100) following treatment. Either 10 ag of ephrin-A1-Fc, or 4 mg of EphA2 mouse monoclonal antibody (Clone D7, Millipore) were used, and mouse IgG was used as a negative control for EphA2 IP. […] We first tested this by utilizing the A172 glioma cells engineered to overexpress EphA2 receptor (A172-A2).

T1 sequence (P29317 24-976): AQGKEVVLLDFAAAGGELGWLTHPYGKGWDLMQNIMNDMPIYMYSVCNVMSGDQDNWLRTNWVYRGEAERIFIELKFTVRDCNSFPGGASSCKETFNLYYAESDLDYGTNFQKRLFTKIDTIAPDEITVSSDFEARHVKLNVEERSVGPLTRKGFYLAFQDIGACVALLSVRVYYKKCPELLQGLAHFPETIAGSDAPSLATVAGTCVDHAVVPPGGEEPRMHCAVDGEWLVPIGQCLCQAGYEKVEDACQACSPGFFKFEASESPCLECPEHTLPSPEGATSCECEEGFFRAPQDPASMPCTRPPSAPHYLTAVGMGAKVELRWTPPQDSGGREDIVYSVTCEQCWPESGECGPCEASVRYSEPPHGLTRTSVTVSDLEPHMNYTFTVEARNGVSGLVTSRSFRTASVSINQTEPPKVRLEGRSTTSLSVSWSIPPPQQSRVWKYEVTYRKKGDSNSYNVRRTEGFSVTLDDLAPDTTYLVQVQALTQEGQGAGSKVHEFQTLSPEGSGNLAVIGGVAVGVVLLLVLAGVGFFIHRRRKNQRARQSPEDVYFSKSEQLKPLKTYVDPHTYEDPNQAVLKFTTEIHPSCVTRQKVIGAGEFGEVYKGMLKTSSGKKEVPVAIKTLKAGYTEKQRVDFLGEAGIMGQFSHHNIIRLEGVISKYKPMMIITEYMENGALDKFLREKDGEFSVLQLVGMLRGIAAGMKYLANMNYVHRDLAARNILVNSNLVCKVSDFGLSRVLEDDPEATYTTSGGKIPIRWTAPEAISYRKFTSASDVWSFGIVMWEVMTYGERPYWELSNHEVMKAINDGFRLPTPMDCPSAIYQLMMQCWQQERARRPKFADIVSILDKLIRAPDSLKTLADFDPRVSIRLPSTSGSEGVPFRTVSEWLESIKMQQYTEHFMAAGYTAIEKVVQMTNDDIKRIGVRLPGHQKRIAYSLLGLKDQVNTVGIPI

`COc1cc2nc(N3CCN(C(=O)C4COc5ccccc5O4)CC3)nc(N)c2cc1OC` (centres unmarked) [doxazosin] was tested, and the “concentration at which significant EphA2 activation starts” value (EphA2 [1]; HEK 293-A2 cells, 30 minutes) was 25 µM, the “time at which EphA2 activation became evident” value (EphA2 [1]; HEK 293-A2 cells, single 50 μM dose) was 10 min and the “EphA2 kinase activation, Eph receptor panel” value (EphA2 [1]; HEK 293 cells overexpressing EphA2, 60 minutes) was “activated both EphA2 and EphA4 kinases”. For the same compound, the pKd (EphA4 LBD) was 4.91, the “endogenous EphB4 activation” value (EphB4) was “not activated” and the “EphA4 kinase activation, Eph receptor panel” value (EphA4) was “activated both EphA2 and EphA4 kinases”. The “concentration at which EphA2 activation became evident” value (EphA2 [2]) was 50 µM and the “inhibition of Akt and ERK1/2 activation” value (ERK1/2 and Akt) was “significant inhibition of Akt and ERK1/2 activation”.
